Assay results published in patent US20090130033A1, “Dendrimer-Aminobuadiene-Based Uv Screens” (priority 2004, published 2009).

Assay: Absorption maximum of aminobutadienes in methanol (or ethanol)
Format: physicochemical
Settings: in methanol (or ethanol when not soluble in methanol)
Excerpt: The aminobutadiene according to the present invention has the general formula (I) disclosed above. A preferred class of aminobutadienes is that in which R3 represents —COOH, —COOR5, —COR5 or SO2R5 and R4 represents a carboxyl group, —COOR6, —COR6 or —SO2R6, wherein R1, R2, R5 and R6 have the meanings indicated above. Examples of aminobutadienes according to the general formula (I) are for example disclosed in U.S. Pat. No. 4,195,999. Table 1 lists a number of aminobutadienes according to the present invention which can be coupled to an amine rich polymer, including their absorption maxima in methanol (or ethanol when not soluble in methanol).

Absorption maximum: 395 nm
SMILES: CCCCC(CC)COC(=O)/C(=C\C=C\N1CCCCC1)C(C)=O (stereo not shown) [2.3]
